Drawing on patent US6737433B1, “1-N-phenylamino-1H-imidazole derivatives as aromatase inhibitors and pharmaceutical compositions containing them” (Laboratoire Theramex, priority 2002, dated 2004), this text covers melting point and IC50 for 30 molecules.

Molecules are shown by their SMILES. Structures can show the parent of a compound that is named as a salt.

The target of one data set is T1, human aromatase (Homo sapiens, UniProt P11511).
T1 construct: The JEG-3 cell line, derived from a human placental choriocarcinoma, is intrinsically very rich in human aromatase; endogenous in cells; host or cells: JEG-3 (human placental choriocarcinoma)
T1 sequence (P11511 1-503): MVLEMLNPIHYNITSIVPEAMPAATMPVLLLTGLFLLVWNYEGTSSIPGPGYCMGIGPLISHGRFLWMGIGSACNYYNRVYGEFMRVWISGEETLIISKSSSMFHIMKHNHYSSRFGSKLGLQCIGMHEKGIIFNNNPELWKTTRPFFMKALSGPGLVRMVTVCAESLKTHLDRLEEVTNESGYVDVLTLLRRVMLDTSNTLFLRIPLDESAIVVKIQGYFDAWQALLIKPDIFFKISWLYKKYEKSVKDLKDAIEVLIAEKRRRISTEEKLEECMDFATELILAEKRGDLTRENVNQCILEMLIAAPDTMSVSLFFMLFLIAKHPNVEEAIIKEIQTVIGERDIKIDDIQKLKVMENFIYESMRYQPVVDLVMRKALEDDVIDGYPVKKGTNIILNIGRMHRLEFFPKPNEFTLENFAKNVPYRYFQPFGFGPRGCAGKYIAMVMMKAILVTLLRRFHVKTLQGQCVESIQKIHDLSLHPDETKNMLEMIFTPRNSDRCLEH
In words: Inhibition of human aromatase in vitro in JEG-3 cells (3H-water release from 1β-3H-androstenedione). The class given is cell-based. To be noted: 10 nM 1β-3H-androstenedione, 2 h incubation. The procedure: Stocks of JEG-3 cells are grown up to 80% of confluence as monolayers in plastic flasks in minimum Eagle's medium with 1 g/l glucose and 10% decomplemented fetal calf serum at pH 7.4 and 37° C., under a 5% CO2 atmosphere. Then, 24 hours before aromatase activity measurement, JEG-3 cells are distributed for seeding in 96-well microplates (60,000 to 100,000 viable cells in 100 μl of culture medium per well); 24 hours later, microplates are rinsed and fresh medium containing the radioactive aromatase substrate (1β-^3H-androstenedione, 10 nM) is added together with test compounds dissolved with 1% dimethylsulfoxyde in a test concentration range between 10^−11 and 10^−4 M in a total volume of 150 μl.
Two hours after the beginning of the incubation, 100 μl of the supernatants are transferred to homologous new 96-well microplates. A solution of dextran-coated charcoal (1%) is added in each well (100 μl/well); after standing for 10 minutes on ice, microplates are centrifuged (1500 g) for 10 more minutes at 4° C. All steroids, including the radioactive substrate and the newly biosynthesized estrogens, are trapped complexed by the charcoal; only the ^3H-water specifically formed during aromatisation of 1β-^3H-androstenedione, involving a specific oxidative step removing the 1β-^3H, remains in the supernatant at this stage.
Finally, aromatase activity is expressed in fmoles/μg DNA in 2 hours and aromatase inhibition in percentage of control incubation without inhibitors.

The melting point is the temperature, or range, at which the solid turns liquid. The molecule `N#Cc1ccc(N(Cc2ccc(F)cc2)n2ccnc2)cc1` (as salt: hydrochloride) (hydrate or solvate) [Example 14, 4-[N-(1H-imidazol-1-yl)-N-(4-fluorophenylmethyl)amino]benzonitrile] had a melting point of 176 to 178 °C.
In turn, `N#Cc1ccc(N(Cc2ccc(Cl)cc2)n2ccnc2)cc1` (as salt: hydrochloride) [Example 7, 4-[N-(1H-imidazol-1-yl)-N-(4-chlorophenylmethyl)amino]benzonitrile] gave a melting point of 190 °C.
Molecule `COc1ccc(CN(c2ccc(C#N)cc2)n2ccnc2)cc1` (as salt: hydrochloride) [Example 8, 4-[N-(1H-imidazol-1-yl)-N-(4-methoxyphenylmethyl)amino]benzonitrile] gave a melting point of 178 °C.
Molecule `COc1ccc(CN(c2ccc(C#N)cc2)n2ccnc2)cc1F` (as salt: hydrochloride) [Example 9, 4-[N-(1H-imidazol-1-yl)-N-(3-fluoro-4-methoxyphenylmethyl)amino]benzonitrile] displayed a melting point of 190 °C.
Molecule `N#Cc1ccc(CN(c2ccc(C#N)cc2)n2ccnc2)cc1` (as salt: hydrochloride) [Example 11, 4-[N-(1H-imidazol-1-yl)-N-(4-cyanophenylmethyl)amino]benzonitrile] displayed a melting point of 195 °C.
Molecule `COc1ccc(CN(c2ccc(C#N)cc2)n2ccnc2)cc1OC` (as salt: hydrochloride) [Example 12, 4-[N-(1H-imidazol-1-yl)-N-(3,4-dimethoxyphenylmethyl)amino]benzonitrile] displayed a melting point of 167 °C.
Regarding `N#Cc1ccc(N(c2ccc(C#N)cc2)n2ccnc2)cc1` (as salt: hydrochloride) [Example 13, 4,4′-[N-(1H-imidazol-1-yl)amino]bis-benzonitrile], the melting point was determined as 199 °C.
`N#Cc1ccc(N(Cc2ccc(Br)cc2)n2ccnc2)cc1` (as salt: hydrochloride) [Example 20, 4-[N-(1H-imidazol-1-yl)-N-(4-bromophenylmethyl)amino]benzonitrile] yielded a melting point of 125 °C.
The IC50 is the concentration needed to halve the response being measured. `N#Cc1ccc(N(c2ccc(C(F)(F)F)cc2)n2ccnc2)cc1` [Example 5, 4-[N-(1H-imidazol-1-yl)-N-(4-trifluoromethylphenyl)amino]benzonitrile] displayed an IC50 at human aromatase of 0.54 ± 0.26 nM.
Still for that read-out and setting: the result for `COc1ccc(CN(c2ccc(C#N)cc2)n2ccnc2)cc1` [Example 8, 4-[N-(1H-imidazol-1-yl)-N-(4-methoxyphenylmethyl)amino]benzonitrile] reads 0.14 ± 0.05 nM; that for `COc1ccc(CN(c2ccc(C#N)cc2)n2ccnc2)cc1F` [Example 9, 4-[N-(1H-imidazol-1-yl)-N-(3-fluoro-4-methoxyphenylmethyl)amino]benzonitrile], 0.16 ± 0.06 nM.
For the molecule `Cc1ccc(CN(c2ccc(C#N)cc2)n2ccnc2)cc1` [Example 10, 4-[N-(1H-imidazol-1-yl)-N-(4-methylphenylmethyl)amino]benzonitrile], the melting point was found to be 156 °C. At human aromatase, it took 0.14 ± 0.03 nM to reach half-maximal inhibition (IC50).
On human aromatase, `N#Cc1ccc(N(c2ccc(C#N)cc2)n2ccnc2)cc1` [Example 13, 4,4′-[N-(1H-imidazol-1-yl)amino]bis-benzonitrile] yielded an IC50 of 0.44 ± 0.04 nM.
`CSc1ccc(CN(c2ccc(C#N)cc2)n2ccnc2)cc1` [Example 15, 4-[N-(1H-imidazol-1-yl)-N-(4-methylthiophenylmethyl)amino]benzonitrile] showed a melting point of 128 °C. On human aromatase, this molecule returned an IC50 of 0.21 ± 0.05 nM.
`CS(=O)(=O)c1ccc(CN(c2ccc(C#N)cc2)n2ccnc2)cc1` [Example 16, 4-[N-(1H-imidazol-1-yl)-N-(4-methylsulfonylphenylmethyl)amino]benzonitrile]: the midpoint of inhibition against human aromatase, the IC50, lay at 0.35 ± 0.07 nM.
`N#Cc1ccc(N(Cc2ccc(F)cc2F)n2ccnc2)cc1` [Example 18, 4-[N-(1H-imidazol-1-yl)-N-(2,4-difluorophenylmethyl)amino]benzonitrile] had a melting point of 149 °C. The IC50 at human aromatase worked out at 0.14 ± 0.01 nM.
On to `N#Cc1ccc(N(Cc2cc(F)cc(F)c2)n2ccnc2)cc1` [Example 19, 4-[N-(1H-imidazol-1-yl)-N-(3,5-difluorophenylmethyl)amino]benzonitrile], for which the melting point was 170 °C. Besides, the IC50 on human aromatase worked out at 0.4 ± 0.06 nM.
At human aromatase, `N#Cc1ccc(N(Cc2ccc(Br)cc2)n2ccnc2)cc1` [Example 20, 4-[N-(1H-imidazol-1-yl)-N-(4-bromophenylmethyl)amino]benzonitrile] came in with an IC50 of 0.22 ± 0.05 nM.
For the molecule `N#Cc1ccc(CN(c2ccc(Br)cc2)n2ccnc2)cc1` [Example 21, 4-[N-(1H-imidazol-1-yl)-N-(4-bromophenyl)aminomethyl]benzonitrile], the melting point worked out at 138 °C. The same molecule registered an IC50 at human aromatase of 1.12 ± 0.55 nM.
`Cn1nnc2ccc(N(Cc3ccc(C#N)cc3)n3ccnc3)cc21` [Example 22, 4-[N-(1-methylbenzotriazol-6-yl)-N-(1H-imidazol-1-yl)aminomethyl]benzonitrile] gave a melting point of 184 °C. On human aromatase, this molecule returned an IC50 of 0.2 ± 0.05 nM.
In the case of `N#Cc1ccc(CN(c2ccc(C#N)cc2C(F)(F)F)n2ccnc2)cc1` [Example 23, 4-[N-(1H-imidazol-1-yl)-N-(4-cyanophenylmethyl)amino]-3-trifluoromethylbenzonitrile], the melting point came out at 226 °C. Besides, inhibition against human aromatase was half-maximal at 0.48 ± 0.13 nM (IC50).
The molecule `N#Cc1ccc(N(Cc2ccccc2)n2ccnc2)cc1` [Example 24, 4-[N-(1H-imidazol-1-yl)-N-(phenylmethyl)amino]benzonitrile] returned a melting point of 107 °C. The molecule also registered an IC50 against human aromatase of 0.18 ± 0.09 nM.
`N#Cc1ccc(N(c2ccc(C#N)cc2C(F)(F)F)n2ccnc2)cc1` [Example 25, 4-[N-(1H-imidazol-1-yl)-N-(4-cyanophenyl)amino]-3-trifluoromethylbenzonitrile] showed a melting point of 166 °C. On human aromatase, half-maximal inhibition (IC50) was put at 0.66 ± 0.14 nM.
On the same counts, the results for `N#Cc1ccc(N(Cc2cccc(F)c2)n2ccnc2)cc1` [Example 26, 4-[N-(1H-imidazol-1-yl)-N-(3-fluorophenylmethyl)amino]benzonitrile] are 112 °C and 0.13 ± 0.05 nM.
As to `COC(=O)c1ccc(CN(c2ccc(C#N)cc2)n2ccnc2)cc1` [Example 27, Methyl 4-[N-(4-cyanophenyl)-N-(1H-imidazol-1-yl)aminomethyl]benzoate], the melting point was 178 °C.
`N#Cc1ccc(N(c2ccc(F)cc2)n2ccnc2)cc1` [Example 28, 4-[N-(1H-imidazol-1-yl)-N-(4-fluorophenyl)amino]benzonitrile]: the melting point was found to be 113 °C. The same molecule came in with an IC50 against human aromatase of 1.57 ± 0.74 nM.
On the same counts, the results for `N#Cc1ccc(N(Cc2cccc(C(F)(F)F)c2)n2ccnc2)cc1` [Example 29, 4-[N-(1H-imidazol-1-yl)-N-(3-trifluoromethylphenylmethyl)amino]benzonitrile] are 122 °C and 0.19 ± 0.05 nM.
With `Cc1cn(N(Cc2ccc(Br)cc2)c2ccc(C#N)cc2)cn1` [Example 30, 4-[N-(4-methyl-1H-imidazol-1-yl)-N-(4-bromophenylmethyl)amino]benzonitrile], the melting point came to 152 °C. This molecule came in with an IC50 at human aromatase of 1.16 ± 0.55 nM.
`Cc1cncn1N(Cc1ccc(Br)cc1)c1ccc(C#N)cc1` [Example 31, 4-[N-(5-methyl-1H-imidazol-1-yl)-N-(4-bromophenylmethyl)amino]benzonitrile]: the melting point was determined as 152 °C. The molecule also returned an IC50 against human aromatase of 0.58 ± 0.18 nM.
In turn, `Cc1ncn(N(Cc2ccc(Br)cc2)c2ccc(C#N)cc2)c1C` [Example 32, 4-[N-(4,5-dimethyl-1H-imidazol-1-yl)-N-(4-bromophenylmethyl)amino]benzonitrile] displayed a melting point of 150 °C.
